One data set in a line: in vitro. The format is cell-based. Particulars: human, lncap cells. As for the experimental part: The cytotoxic activity of the considered plant extracts was evaluated in a human tumour prostate cell line (LNCaP). […] The treatment was prolonged for 6 hours, period of time corresponding to the overall duration of the pre-treatment and of post-treatment thereto the cells were subjected for the subsequent evaluation of the anti-inflammatory activity. At the end of the incubation period, the vitality of the prostate cells was evaluated by using the assay MTS, based upon the reduction of the compound MTS tetrazolium by the vital cells to generate a form of coloured formazan, which can be quantified by measuring the absorbance at 490-500 nm thereof.

In data set [1] the test system is human prostate cell line (LNCaP). In words: Cytotoxicity of plant extracts, MTS assay, 24 hours. The format is cell-based. The settings on record: extracts 0 to 1000 µg/mL (TEUPOL10 0 to 1500 µg/mL), Dutasteride 0 to 7.93 µg/mL. The method, then: The cytotoxic activity of considered plant extracts was evaluated in a human prostate cell line (LNCaP). The prostate cells were treated with growing concentrations of the plant extracts (from 0 to 1000 µg/mL for the extract of B. Serrata and S. Repens, from 0 to 1500 µg/mL for TEUPOL10) and of the positive control Dutasteride (from 0 µg/mL to 7.93 µg/mL). The treatment was prolonged for 24 hours, time corresponding to the overall duration of the experiments related to PSA and to 5-α-reductase. At the end of the incubation period, the vitality of the prostate cells was evaluated by using the assay MTS, based upon the reduction of the compound MTS tetrazolium by the vital cells to generate a coloured form, which can be quantified by measuring the absorbance thereof at 490-500 nm.
Background: Tetrazolium dyes change colour on reduction, which living cells bring about.

For `O=C(O)Cc1ccccc1Nc1c(Cl)cccc1Cl` [Diclofenac], the MCC at 6 h in the data set “in vitro” is 80 µg/mL.

As for `C[C@]12C=CC(=O)N[C@@H]1CC[C@@H]1[C@@H]2CC[C@]2(C)[C@@H](C(=O)Nc3cc(C(F)(F)F)ccc3C(F)(F)F)CC[C@@H]12` [Dutasteride], the “adverse effect on vitality of the prostate cells” value in data set [1] is recorded as “No adverse effect”.

(Values after patent EP4117701B1, “COMPOSITIONS FOR THE PREVENTION AND/OR TREATMENT OF BENIGN PROSTATIC HYPERTROPHY (BPH)” (IDI Integratori Dietetici Italiani S.r.l., priority 2020, dated 2021).)
